Results as given in US20250082765A1, “MOLECULES AS ANTICANCER AGENTS FOR TARGETED TREATMENT OF BREAST AND PROSTATE CANCER” (priority 2021, published 2025).

What was measured:
[1] = Biodistribution analysis of capecitabine in other organs (blood, liver, lungs, spleen) of mice; details: later hours (1 hour, 2 hours)
Method: (§1) The route of administration incorporated for ester of citric acid with capecitabine and estrogen and ester of citric acid with capecitabine and dihydrotestosterone is through intravenous (IV) bolus.
(§2) The biodistribution analysis was carried out for capecitabine in plasma. […] The biodistribution analysis was carried out in breast tissue for females and in prostate gland for males along with several other organs including blood, liver, lungs and spleen.
(§3) The biodistribution analysis was carried out in three groups of albino mice. The female albino mice of age 7-8 weeks and weight 19g-35g were analyzed for the distribution of capecitabine in breast tissue. The male albino mice of age 7-8 weeks and weight 20g-30g were analyzed for the distribution of capecitabine in prostate gland. The study groups comprised of 3 groups including group 1, group 2 and group 3. The study group 1 comprised 6 mice receiving normal control, study group 2 comprised 6 mice receiving pure drug solution and study group 3 comprised 6 mice receiving molecule of formula (I) anticancer drug.
(§4) The analysis of capecitabine in plasma was initiated by liquid-liquid extraction using ethyl acetate. The extraction was carried out on ethylene bridged hybrid (BEH) C18 (100×2.1 mm, 1.7 μm) column. An isocratic flow rate of 0.5 ml/min of acetonitrile (0.1%) and 0.002M ammonium acetate as mobile phase was incorporated. Mass spectrometry analysis was carried out in multiple reaction monitoring modes. The precursor to product ion transitions with mass to ion (m/z) ratio of 360.04 to 244.08 was found for capecitabine. […] The biodistribution data for capecitabine was obtained for concentrations ranging from 5 ng/ml and 40 ng/ml.
(§5) The biodistribution of capecitabine was also analyzed for several other organs such as blood, liver, lungs and the spleen. […] The biodistribution of capecitabine was analyzed at time intervals of 0.5 hours, 1 hour and 2 hours. The biodistribution data was recorded for 6 mice.

[2] = in vivo; details: albino, mouse, intravenous
Method: as §1, §2, §3, §4, §5

biodistribution of capecitabine in blood [1]: negligible
biodistribution of capecitabine in liver [1]: negligible
biodistribution of capecitabine in lungs [1]: negligible
biodistribution of capecitabine in spleen [1]: negligible
concentration at 0.5 h ([2]; liver): 13 ng/mL
concentration at 0.5 h ([2]; lungs): 12.5 ng/mL
concentration at 0.5 h ([2]; spleen): 12.1 ng/mL
concentration at 0.5 h ([2]; whole blood): 13.6 ng/mL
Structure (SMILES): CCCCCOC(=O)Nc1nc(=O)n([C@@H]2O[C@H](C)[C@@H](O)[C@H]2O)cc1F [capecitabine]
